Like-named read-outs stand apart in the source and are kept apart here.
How the values were obtained:
Assay in all cases: Post-emergent Test III, herbicidal activity in wheat and barley
Assay type in all cases: in vivo
[1] = system: CIRAR: Canada thistle (Cirsium arvense); conditions: Table 8, 21 d; for pest or weed control at 35 g/ha / pest or weed control at 70 g/ha: Cirsium arvense, post-emergence, 504 h, post-emergent, read-out: Visual Growth Reduction (%) 21 Days After Application CIRAR; for pest or weed control at 35 g/ha: 35 g ai/ha; for pest or weed control at 70 g/ha: 70 g ai/ha; for GR50 CIRAR: dose for 50 percent growth reduction; for GR50 CIRAR / GR80 CIRAR: probit analysis; for GR80 CIRAR: dose for 80 percent growth reduction
Method in brief: (§1)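 GR20, GR50, GR80 and GR90 come from probit analysis of visual injury scores (0 = none, 100 = complete kill) taken 21 d after treatment. Foliar application was by track sprayer delivering 187 L/ha at five rates, from high down to 1/16×, onto greenhouse plants at the 2–3 leaf stage, with solvent-blank controls.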

[2] = system: SASKR: Russian thistle (Salsola iberica); conditions: for pest or weed control at 35 g/ha / pest or weed control at 70 g/ha: Salsola tragus, post-emergence, 504 h; for pest or weed control at 35 g/ha: 35 g ai/ha; for pest or weed control at 70 g/ha: 70 g ai/ha; for GR50 SASKR: dose for 50 percent growth reduction; for GR50 SASKR / GR80 SASKR: probit analysis; for GR80 SASKR: dose for 80 percent growth reduction
Method in brief: as §1

[3] = system: GALAP: cleavers (Galium aparine); conditions: Table 8, 21 d; for pest or weed control at 35 g/ha / pest or weed control at 70 g/ha: Galium aparine, post-emergence, 504 h, post-emergent, read-out: Visual Growth Reduction (%) 21 Days After Application GALAP; for pest or weed control at 35 g/ha: 35 g ai/ha; for pest or weed control at 70 g/ha: 70 g ai/ha; for GR50 GALAP: dose for 50 percent growth reduction; for GR50 GALAP / GR80 GALAP: probit analysis; for GR80 GALAP: dose for 80 percent growth reduction
Method in brief: as §1

[4] = system: VIOSS: wild pansy (Viola tricolor), field violet (Viola arvensis); conditions: for GR50 VIOSS: dose for 50 percent growth reduction; for GR50 VIOSS / GR80 VIOSS: probit analysis; for GR80 VIOSS: dose for 80 percent growth reduction; for pest or weed control at 35 g/ha / pest or weed control at 70 g/ha: Viola tricolor, post-emergence, 504 h; for pest or weed control at 35 g/ha: 35 g ai/ha; for pest or weed control at 70 g/ha: 70 g ai/ha
Method in brief: as §1

[5] = system: STEME: common chickweed (Stellaria media); conditions: for pest or weed control at 35 g/ha / pest or weed control at 70 g/ha / pest or weed control at 140 g/ha: Stellaria media, post-emergence, 504 h, read-out: Visual Growth Reduction (%) 21 Days After Application STEME; for pest or weed control at 35 g/ha: 35 g ai/ha; for pest or weed control at 70 g/ha: 70 g ai/ha; for pest or weed control at 140 g/ha: 140 g ai/ha; for GR50 STEME / GR80 STEME: probit analysis, 21 days after application; for GR50 STEME: dose for growth reduction of 50 percent; for GR80 STEME: dose for growth reduction of 80 percent
Method in brief: as §1

[6] = Table 8, post-emergent, 21 d, read-out: Visual Growth Reduction (%) 21 Days After Application SASKR
[7] = Table 8, post-emergent, 21 d, read-out: Visual Growth Reduction (%) 21 Days After Application VIOSS
[8] = 21 days after application, read-out: Visual Gorowth Reduction (%) 21 days After Application SASKR
[9] = 21 days after application, read-out: Visual Gorowth Reduction (%) 21 days After Application VIOSS

Row | Compound | pest or weed control at 35 g/ha [1] | pest or weed control at 70 g/ha [1] | GR50 CIRAR [1] | GR80 CIRAR [1] | pest or weed control at 35 g/ha [2, 6] | pest or weed control at 70 g/ha [2, 6] | GR50 SASKR ([2]; Table 8, 21 d) | GR80 SASKR ([2]; Table 8, 21 d) | pest or weed control at 35 g/ha [3] | pest or weed control at 70 g/ha [3] | GR50 GALAP [3] | GR80 GALAP [3] | GR50 VIOSS ([4]; Table 8, 21 d) | GR80 VIOSS ([4]; Table 8, 21 d) | pest or weed control at 35 g/ha [4, 7] | pest or weed control at 70 g/ha [4, 7] | pest or weed control at 35 g/ha [5] | pest or weed control at 70 g/ha [5] | pest or weed control at 140 g/ha [5] | GR50 STEME [5] | further results
1 | Nc1cc(-c2cc(F)c(Br)cc2F)nc(C(=O)O)c1Cl [Compound 3] | 60 to 74% | 75 to 84% | 18 g ai/ha | 53 g ai/ha | 75 to 84% | 85 to 94% | 2 g ai/ha | 28 g ai/ha | 95 to 100% | 95 to 100% | 5 g ai/ha | 7 g ai/ha | 4 g ai/ha | 7 g ai/ha | 95 to 100% | 95 to 100% | – | – | – | – | –
2 | Nc1c(F)c(-c2ccc(Br)cc2)nc(C(=O)O)c1Cl [Compound 20] | – | – | – | – | – | – | – | – | – | – | – | – | – | – | – | – | 75 to 84% | 95 to 100% | 95 to 100% | 8 g ai/ha | GR80 STEME [5]: 25 g ai/ha
3 | COC(=O)c1nc(-c2ccc(I)c(F)c2)nc(N)c1OC [Compound 27, Methyl 6-amino-2-(3-fluoro-4-iodophenyl)-5-methoxypyrimidine-4-carboxylate] | 75 to 84% | 75 to 84% | 18 g ai/ha | 70 g ai/ha | 60 to 74% | 60 to 74% | 22 g ai/ha | 116 g ai/ha | 85 to 94% | 85 to 94% | 5 g ai/ha | 25 g ai/ha | 8 g ai/ha | 27 g ai/ha | 75 to 84% | 95 to 100% | – | – | – | – | –
4 | COc1c(N)nc(-c2ccc(I)c(F)c2)nc1C(=O)O [Compound 37, 6-Amino-2-(3-fluoro-4-iodophenyl)-5-methoxypyrimidine-4-carboxylic acid] | 45 to 59% | 75 to 84% | 23 g ai/ha | 103 g ai/ha | 45 to 59% | 60 to 74% | 33 g ai/ha | 104 g ai/ha | 85 to 94% | 95 to 100% | 14 g ai/ha | 31 g ai/ha | 12 g ai/ha | 35 g ai/ha | 75 to 84% | 85 to 94% | – | – | – | – | –
5 | N#Cc1ccc(-c2nc(C(=O)O)c(Cl)c(N)c2F)cc1 [Compound 39] | – | – | – | – | – | – | – | – | – | – | – | – | – | – | – | – | 0 to 29% | 30 to 44% | 45 to 59% | 111 g ai/ha | GR80 STEME [5]: >140 g ai/ha
6 | Nc1c(Cl)c(C(=O)O)nc(-c2ccc(Br)c(F)c2)c1Cl [Compound 43, 4-Amino-6-(4-bromo-3-fluorophenyl)-3,5-dichloropicolinic acid] | 85 to 94% | 85 to 94% | 0 g ai/ha | 13 g ai/ha | 75 to 84% | 75 to 84% | 3 g ai/ha | 61 g ai/ha | 95 to 100% | 95 to 100% | 2 g ai/ha | 6 g ai/ha | 37 g ai/ha | >140 g ai/ha | 45 to 59% | 60 to 74% | – | – | – | – | –
7 | Nc1c(F)c(-c2ccc(I)cc2)nc(C(=O)O)c1Cl [Compound 45, 4-amino-3-chloro-5-fluoro-6-(4-iodophenyl)picolinic acid] | – | – | – | – | – | – | – | – | – | – | – | – | – | – | – | – | 30 to 44% | 30 to 44% | 30 to 44% | 75 g ai/ha | GR80 STEME [5]: >140 g ai/ha
8 | Nc1c(F)c(-c2cc(F)c(I)cc2F)nc(C(=O)O)c1Cl [Compound 69] | – | – | – | – | – | – | – | – | – | – | – | – | – | – | – | – | – | – | – | – | pest or weed control at 35 g/ha [2, 8]: 85 to 94%; pest or weed control at 70 g/ha [2, 8]: 85 to 94%; GR50 SASKR ([2]; 21 days after application): 7 g ai/ha; GR80 SASKR ([2]; 21 days after application): 29 g ai/ha; pest or weed control at 35 g/ha [4, 9]: 85 to 94%; pest or weed control at 70 g/ha [4, 9]: 95 to 100%; GR50 VIOSS ([4]; 21 days after application): 3 g ai/ha; GR80 VIOSS ([4]; 21 days after application): 8 g ai/ha

From US9113629B2, “4-amino-6-(4-substituted-phenyl)-picolinates and 6-amino-2-(4-substituted-phenyl)-pyrimidine-4-carboxylates and their use as herbicides” (DOW AGROSCIENCES LLC, priority 2013, dated 2015)
